pIC50: −log10 of the molar value.
Tests used:
[1] = Chemical stability assessment, 60/75 stress test, HPLC; assay type: physicochemical
Method: The chemical stability assessment was performed on crystalline Pattern B using a 60/75 stress test (The International Conference on Harmonisation of Technical Requirements for Registration of Pharmaceuticals for Human Use, Stability Testing of New Drug Substances and Products, Q1A(R2), 2003). Samples were exposed to 60° C./75% relative humidity condition for 2 weeks and post-stress materials were analyzed by HPLC. Data at time-zero was also collected for all samples and served as references. The following table summarizes stability data obtained (peak area % measured by HPLC) for crystalline Pattern B.

kinases = details: panel of kinases; cited from earlier work
[2] = molecular target: β1 site of the 20S proteasome (Homo sapiens, UniProt P28072); details: at higher concentrations; cited from earlier work
receptors = details: panel of receptors; cited from earlier work
[3] = molecular target: β2 site of the 20S proteasome (Homo sapiens, UniProt Q99436); details: at higher concentrations; cited from earlier work

Structure (SMILES) | % at 1 wk (peak area % measured by HPLC) ([1]; 60° C./75% relative humidity, 1 wk) | % at 2 wk (peak area % measured by HPLC) ([1]; 60° C./75% relative humidity, 2 wk) | % at t0 (peak area % measured by HPLC) ([1]; time-zero reference) | pIC50 (kinases) | inhibition of the activity of the β1 site [2] | pIC50 (receptors) | inhibition of the activity of the β2 site [3]
CC(C)C[C@H](NC(=O)CNC(=O)c1cc(Cl)ccc1Cl)B1OB([C@H](CC(C)C)NC(=O)CNC(=O)c2cc(Cl)ccc2Cl)OB([C@H](CC(C)C)NC(=O)CNC(=O)c2cc(Cl)ccc2Cl)O1 [Crystalline Pattern B, N,N′,N″-[2,4,6-boroxintriyltris[[(1R)-3-methylbutylidene]imino(2-oxo-2,1-ethanediyl)]]tris(2,5-dichlorobenzamide)] | 94.2% | 79.5% | 99.3% | – | – | – | –
CC(C)C[C@H](NC(=O)CNC(=O)c1cc(Cl)ccc1Cl)B(O)O [Ixazomib, [(1R)-1-({[(2,5-dichlorobenzoyl)amino]acetyl}amino)-3-methylbutyl]boronic acid] | – | – | – | < 5.00 | inhibits the activity | < 5.00 | inhibits the activity

Source: patent US10072029B2, “Crystalline form of a proteasome inhibitor” (Millennium Pharmaceuticals, Inc., priority 2015, dated 2018)
